Reference: ChEMBL document CHEMBL3886531, “Dihydropyrrolopyrimidine derivatives” (2016)

Biological target: PI3-kinase p110-alpha/p85-alpha (Homo sapiens, UniProt P42336)
Assay: Biochemical Assay: PI3KA_FL: Genes encoding for full length p110alpha and p85alpha subunits of PI3Kalpha complex were subcloned from existing constructs into pFASTBAC Dual vector (Life Technologies, Carlsbad, Calif.) using standard cloning procedures. Gene encoding p110alpha subunit was subcloned into polyhedrine promoter while gene encoding p85alpha subunit was subcloned into p10 promoter. Additionally, sequence encoding for histidine tag and Tobacco Etch Virus ("TEV") cleavage site preceded p110alpha ORF (Open Reading Frame). The biochemical assays of kinase activity of full-length PI3Kalpha (full-length p110alpha/p85a) or truncated PI3Kalpha (p110alpha/iSH2 p85a) were conducted using a fluorescence polarization format similar to the procedure of Yuan J., et al., (2011) PF-04691502, a Potent and Selective Oral Inhibitor of PI3K and mTOR Kinases with Antitumor Activity, Mol Cancer Ther. 10, 2189-2199. The enzymatic reactions were conducted in 50 uL volumes in 96-well plates.
Format: protein-complex assay

PI3-kinase p110-alpha/p85-alpha, sequence (P27986 whole entry, the tested form may be a part): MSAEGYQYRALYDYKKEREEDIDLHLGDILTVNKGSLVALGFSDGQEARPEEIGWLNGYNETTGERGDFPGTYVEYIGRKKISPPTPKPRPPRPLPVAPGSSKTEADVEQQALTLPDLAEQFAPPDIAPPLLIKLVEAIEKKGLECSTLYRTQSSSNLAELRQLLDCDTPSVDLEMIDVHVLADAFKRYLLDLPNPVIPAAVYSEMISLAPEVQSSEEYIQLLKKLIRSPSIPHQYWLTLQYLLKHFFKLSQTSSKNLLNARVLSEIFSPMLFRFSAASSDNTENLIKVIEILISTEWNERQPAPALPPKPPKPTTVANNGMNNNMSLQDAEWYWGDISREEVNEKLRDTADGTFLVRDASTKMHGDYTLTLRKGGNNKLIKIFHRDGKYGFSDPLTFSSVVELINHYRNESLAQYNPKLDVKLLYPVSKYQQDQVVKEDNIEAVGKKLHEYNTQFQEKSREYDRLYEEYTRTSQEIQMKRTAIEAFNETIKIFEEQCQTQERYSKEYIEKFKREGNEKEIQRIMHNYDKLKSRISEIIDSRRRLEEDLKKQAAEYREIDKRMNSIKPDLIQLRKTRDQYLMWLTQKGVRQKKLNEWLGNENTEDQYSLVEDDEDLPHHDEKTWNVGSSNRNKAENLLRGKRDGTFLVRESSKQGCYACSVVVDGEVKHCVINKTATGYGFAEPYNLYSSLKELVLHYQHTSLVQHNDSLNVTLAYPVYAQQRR
PI3-kinase p110-alpha/p85-alpha, sequence (P42336 whole entry, the tested form may be a part): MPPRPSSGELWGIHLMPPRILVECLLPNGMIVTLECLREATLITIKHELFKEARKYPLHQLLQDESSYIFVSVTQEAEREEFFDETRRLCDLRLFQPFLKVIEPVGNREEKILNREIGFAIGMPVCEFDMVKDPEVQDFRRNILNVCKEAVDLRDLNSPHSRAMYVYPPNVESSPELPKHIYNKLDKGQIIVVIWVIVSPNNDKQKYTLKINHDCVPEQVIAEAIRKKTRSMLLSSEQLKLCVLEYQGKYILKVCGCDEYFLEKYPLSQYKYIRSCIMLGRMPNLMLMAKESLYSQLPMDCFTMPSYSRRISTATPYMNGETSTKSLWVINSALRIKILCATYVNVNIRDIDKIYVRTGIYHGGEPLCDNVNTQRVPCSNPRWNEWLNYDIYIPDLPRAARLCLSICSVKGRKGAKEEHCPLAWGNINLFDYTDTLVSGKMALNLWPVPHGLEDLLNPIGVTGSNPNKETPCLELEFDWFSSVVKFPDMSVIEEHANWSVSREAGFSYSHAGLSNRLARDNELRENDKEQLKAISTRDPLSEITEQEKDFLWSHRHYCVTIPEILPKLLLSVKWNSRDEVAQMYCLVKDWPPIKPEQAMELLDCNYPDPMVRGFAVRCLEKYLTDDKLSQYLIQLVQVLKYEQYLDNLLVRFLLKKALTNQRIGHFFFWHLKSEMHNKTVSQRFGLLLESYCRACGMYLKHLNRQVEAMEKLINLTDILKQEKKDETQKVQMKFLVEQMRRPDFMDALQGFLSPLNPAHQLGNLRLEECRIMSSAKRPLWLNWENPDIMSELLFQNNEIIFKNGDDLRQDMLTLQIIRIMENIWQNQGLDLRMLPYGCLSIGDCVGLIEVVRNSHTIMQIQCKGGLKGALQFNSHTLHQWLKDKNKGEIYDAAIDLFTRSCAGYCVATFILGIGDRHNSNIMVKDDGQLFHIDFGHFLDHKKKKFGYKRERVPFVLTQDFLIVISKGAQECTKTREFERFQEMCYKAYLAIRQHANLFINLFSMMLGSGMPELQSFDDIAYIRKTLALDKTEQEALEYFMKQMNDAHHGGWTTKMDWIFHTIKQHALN

CC(=O)N[C@H]1C(C)(C)[C@H](N2CCc3c(-c4cnc(N)nc4)nc(N4CCOCC4)nc32)C1(C)C
Ki: 1.14 nM
